This is an account of results in US9975878B2, “Substituted triazine BMI-1 inhibitors” (PTC Therapeutics, Inc., priority 2013, dated 2018).

Each structure is given as a SMILES string.

A word on the EC50: it is the concentration that produces a half-maximal response. High values mean weaker potency, low ones greater potency.

The subject of the assay is Bmi-1 protein. In words: Sandwich ELISA Assay: Bmi-1 protein level in HT-1080 cells treated with test compounds. The assay is classed as cell-based. Put shortly:
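HT-1080 cells exposed to compounds (final DMSO 0.5%) for 40-48 h at 37° C, 5% CO2, then lysed. Bmi-1 quantified by sandwich ELISA (mouse anti-Bmi-1 capture, rabbit anti-Bmi-1 detection, HRP anti-rabbit, TMB), read at OD450 with OD570 reference, against recombinant GST-Bmi-1 standard curve (0-8000 pg/mL).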
`CCc1nc2ncc(F)cc2n1-c1nc(N)nc(Nc2ccc(OC(F)F)cc2)n1` [Cpd 79, N-[4-(difluoromethoxy)phenyl]-6-(2-ethyl-6-fluoro-1H-imidazo[4,5-b]pyridin-1-yl)-1,3,5-triazine-2,4-diamine] had an EC50 of 10 to 100 nM.
As for `Cc1nc2cc(Cl)ccc2n1-c1nc(N)nc(Nc2ccc(OC(F)F)cc2)n1` [Cpd 80, 6-(5-chloro-2-methyl-1H-benzimidazol-1-yl)-N-[4-(difluoromethoxy)phenyl]-1,3,5-triazine-2,4-diamine], the figure is 100 to 3000 nM; as for `Cc1nc2ccc(Cl)cc2n1-c1nc(N)nc(Nc2ccc(OC(F)F)cc2)n1` [Cpd 81, 6-(6-chloro-2-methyl-1H-benzimidazol-1-yl)-N-[4-(difluoromethoxy)phenyl]-1,3,5-triazine-2,4-diamine], 10 to 100 nM.
Compound `CCc1nc2ncc(F)cc2n1-c1nc(N)nc(Nc2ccc(C(F)(F)F)cc2)n1` [Cpd 82, 6-(2-ethyl-6-fluoro-1H-imidazo[4,5-b]pyridin-1-yl)-N-[4-(trifluoromethyl)phenyl]-1,3,5-triazine-2,4-diamine] gave an EC50 of 10 to 100 nM.
As for `Nc1nc(Nc2ccc(OC(F)F)cc2)nc(-n2c(C3CC3)nc3cc(F)c(F)cc32)n1` [Cpd 83, 6-(2-cyclopropyl-5,6-difluoro-1H-benzimidazol-1-yl)-N-[4-(difluoromethoxy)phenyl]-1,3,5-triazine-2,4-diamine], the figure is 10 to 100 nM; as for `CCc1nc2cc(F)c(F)cc2n1-c1nc(N)nc(Nc2ccc(OC(F)F)cc2)n1` [Cpd 84, N-[4-(difluoromethoxy)phenyl]-6-(2-ethyl-5,6-difluoro-1H-benzimidazol-1-yl)-1,3,5-triazine-2,4-diamine], 10 to 100 nM; as for `Nc1nc(Nc2ccc(C(F)(F)F)cc2)nc(-n2c(C3CC3)nc3c(F)cccc32)n1` [Cpd 85, 6-(2-cyclopropyl-4-fluoro-1H-benzimidazol-1-yl)-N-[4-(trifluoromethyl)phenyl]-1,3,5-triazine-2,4-diamine], 10 to 100 nM.
The compound `Nc1nc(Nc2ccc(OC(F)F)cc2)nc(-n2c(C3CC3)nc3c(F)cccc32)n1` [Cpd 86, 6-(2-cyclopropyl-4-fluoro-1H-benzimidazol-1-yl)-N-[4-(difluoromethoxy)phenyl]-1,3,5-triazine-2,4-diamine] came in with an EC50 of 10 to 100 nM.
In the case of `Nc1nc(Nc2ccc(OC(F)F)c(F)c2)nc(-n2c(C3CC3)nc3c(F)cccc32)n1` [Cpd 87, 6-(2-cyclopropyl-4-fluoro-1H-benzimidazol-1-yl)-N-[4-(difluoromethoxy)-3-fluorophenyl]-1,3,5-triazine-2,4-diamine], the EC50 lay within 10 to 100 nM.
As for `Nc1nc(Nc2ccc(C(F)(F)F)cc2)nc(-n2c(C3CC3)nc3c(F)cc(F)cc32)n1` [Cpd 88, 6-(2-cyclopropyl-4,6-difluoro-1H-benzimidazol-1-yl)-N-[4-(trifluoromethyl)phenyl]-1,3,5-triazine-2,4-diamine], the figure is 10 to 100 nM; as for `Cc1nc2ccccc2n1-c1nc(N)nc(Nc2cccc(OC(F)F)c2)n1` [Cpd 93, N-[3-(difluoromethoxy)phenyl]-6-(2-methyl-1H-benzimidazol-1-yl)-1,3,5-triazine-2,4-diamine], 100 to 3000 nM.
To `Cc1nc2ccccc2n1-c1nncc(Nc2ccc(C(F)(F)F)cc2)n1` [Cpd 94, 3-(2-methyl-1H-benzimidazol-1-yl)-N-[4-(trifluoromethyl)phenyl]-1,2,4-triazin-5-amine] belongs 100 to 3000 nM; to `Cc1nc2c(F)cccc2n1-c1nc(N)nc(Nc2ccc(C(F)(F)F)cc2)n1` [Cpd 95, 6-(4-fluoro-2-methyl-1H-benzimidazol-1-yl)-N-[4-(trifluoromethyl)phenyl]-1,3,5-triazine-2,4-diamine], 100 to 3000 nM; to `Cc1nc2c(F)cccc2n1-c1nc(N)nc(Nc2ccc(OC(F)F)cc2)n1` [Cpd 96, N-[4-(difluoromethoxy)phenyl]-6-(4-fluoro-2-methyl-1H-benzimidazol-1-yl)-1,3,5-triazine-2,4-diamine], 10 to 100 nM.
As for `Cc1nc2c(F)cccc2n1-c1nc(N)nc(Nc2ccc(OC(F)F)c(F)c2)n1` [Cpd 97, N-[4-(difluoromethoxy)-3-fluorophenyl]-6-(4-fluoro-2-methyl-1H-benzimidazol-1-yl)-1,3,5-triazine-2,4-diamine], the figure is 100 to 3000 nM; as for `CCc1nc2ccccc2n1-c1nncc(Nc2ccc(C(F)(F)F)cc2)n1` [Cpd 98, 3-(2-ethyl-1H-benzimidazol-1-yl)-N-[4-(trifluoromethyl)phenyl]-1,2,4-triazin-5-amine], 10 to 100 nM.
`Cc1nc2ccccc2n1-c1nncc(Nc2ccc(OC(F)F)cc2)n1` [Cpd 99, N-[4-(difluoromethoxy)phenyl]-3-(2-methyl-1H-benzimidazol-1-yl)-1,2,4-triazin-5-amine] had an EC50 of 10 to 100 nM.
As for `CCc1nc2ccccc2n1-c1nncc(Nc2ccc(OC(F)F)cc2)n1` [Cpd 100, N-[4-(difluoromethoxy)phenyl]-3-(2-ethyl-1H-benzimidazol-1-yl)-1,2,4-triazin-5-amine], the figure is 10 to 100 nM.
`FC(F)(F)c1ccc(Nc2cnnc(-n3c(C4CC4)nc4ccccc43)n2)cc1` [Cpd 101, 3-(2-cyclopropyl-1H-benzimidazol-1-yl)-N-[4-(trifluoromethyl)phenyl]-1,2,4-triazin-5-amine] came in with an EC50 of 10 to 100 nM.
To `Nc1nc(Nc2ccc(OC(F)F)nc2)nc(-n2c(C(F)F)nc3ccccc32)n1` [Cpd 105, N-[6-(difluoromethoxy)pyridin-3-yl]-6-[2-(difluoromethyl)-1H-benzimidazol-1-yl]-1,3,5-triazine-2,4-diamine] belongs 10 to 100 nM; to `Nc1nc(Nc2ccc(C(F)(F)F)cc2)nc(-n2c(CF)nc3ccccc32)n1` [Cpd 107, 6-[2-(fluoromethyl)-1H-benzimidazol-1-yl]-N-[4-(trifluoromethyl)phenyl]-1,3,5-triazine-2,4-diamine], 100 to 3000 nM.
To `Nc1nc(Nc2ccc(OC(F)F)nc2)nc(-n2c(CF)nc3ccccc32)n1` [Cpd 110, N-[6-(difluoromethoxy)pyridin-3-yl]-6-[2-(fluoromethyl)-1H-benzimidazol-1-yl]-1,3,5-triazine-2,4-diamine] belongs 100 to 3000 nM; to `Cc1nc2ccccc2n1-c1cnnc(Nc2ccc(C(F)(F)F)cc2)n1` [Cpd 112, 5-(2-methyl-1H-benzimidazol-1-yl)-N-[4-(trifluoromethyl)phenyl]-1,2,4-triazin-3-amine], 100 to 3000 nM.
As for `FC(F)Oc1ccc(Nc2cnnc(-n3c(C4CC4)nc4ccccc43)n2)cc1` [Cpd 113, 3-(2-cyclopropyl-1H-benzimidazol-1-yl)-N-[4-(difluoromethoxy)phenyl]-1,2,4-triazin-5-amine], the figure is 10 to 100 nM; as for `Nc1nc(Nc2ccc(C(F)(F)F)cc2)nc(-n2c(C(F)F)nc3cc(F)c(F)cc32)n1` [Cpd 114, 6-[2-(difluoromethyl)-5,6-difluoro-1H-benzimidazol-1-yl]-N-[4-(trifluoromethyl)phenyl]-1,3,5-triazine-2,4-diamine], 100 to 3000 nM; as for `Nc1nc(Nc2ccc(OC(F)F)cc2)nc(-n2c(C(F)F)nc3cc(F)c(F)cc32)n1` [Cpd 115, N-[4-(difluoromethoxy)phenyl]-6-[2-(difluoromethyl)-5,6-difluoro-1H-benzimidazol-1-yl]-1,3,5-triazine-2,4-diamine], 10 to 100 nM.
`CCc1nc2cc(F)c(F)cc2n1-c1nc(N)nc(Nc2ccc(C(F)(F)F)cc2)n1` [Cpd 116, 6-(2-ethyl-5,6-difluoro-1H-benzimidazol-1-yl)-N-[4-(trifluoromethyl)phenyl]-1,3,5-triazine-2,4-diamine] registered an EC50 of 100 to 3000 nM.
To `Nc1nc(Nc2ccc(OC(F)F)c(F)c2)nc(-n2c(C(F)F)nc3cc(F)c(F)cc32)n1` [Cpd 117, N-[4-(difluoromethoxy)-3-fluorophenyl]-6-[2-(difluoromethyl)-5,6-difluoro-1H-benzimidazol-1-yl]-1,3,5-triazine-2,4-diamine] belongs 100 to 3000 nM; to `Nc1nc(Nc2ccc(C(F)(F)F)cc2)nc(-n2c(CO)nc3ccccc32)n1` [Cpd 118, [1-(4-amino-6-{[4-(trifluoromethyl)phenyl]amino}-1,3,5-triazin-2-yl)-1H-benzimidazol-2-yl]methanol], 100 to 3000 nM.
As for `N#CCc1nc2ccccc2n1-c1nc(N)nc(Nc2ccc(C(F)(F)F)cc2)n1` [Cpd 119, [1-(4-amino-6-{[4-(trifluoromethyl)phenyl]amino}-1,3,5-triazin-2-yl)-1H-benzimidazol-2-yl]acetonitrile], the figure is 100 to 3000 nM; as for `Nc1nc(Nc2ccc(OC(F)F)cc2)nc(-n2c(CO)nc3ccccc32)n1` [Cpd 120, [1-(4-amino-6-{[4-(difluoromethoxy)phenyl]amino}-1,3,5-triazin-2-yl)-1H-benzimidazol-2-yl]methanol], 100 to 3000 nM.
To `CSc1nc2ccccc2n1-c1nc(N)nc(Nc2ccc(OC(F)F)cc2)n1` [Cpd 121, N-[4-(difluoromethoxy)phenyl]-6-[2-(methylsulfanyl)-1H-benzimidazol-1-yl]-1,3,5-triazine-2,4-diamine] belongs 100 to 3000 nM; to `N#CCc1nc2ccccc2n1-c1nc(N)nc(Nc2ccc(OC(F)F)c(F)c2)n1` [Cpd 122, [1-(4-amino-6-{[4-(difluoromethoxy)-3-fluorophenyl]amino}-1,3,5-triazin-2-yl)-1H-benzimidazol-2-yl]acetonitrile], 100 to 3000 nM; to `Cc1nn2ccccc2c1-c1nc(N)nc(Nc2ccc(OC(F)F)cc2)n1` [Cpd 123, N-[4-(difluoromethoxy)phenyl]-6-(2-methylpyrazolo[1,5-a]pyridin-3-yl)-1,3,5-triazine-2,4-diamine], 100 to 3000 nM.
In turn, `CCc1nc2ccccc2n1-c1cnnc(Nc2ccc(C(F)(F)F)cc2)n1` [Cpd 124, 5-(2-ethyl-1H-benzimidazol-1-yl)-N-[4-(trifluoromethyl)phenyl]-1,2,4-triazin-3-amine] gave a 50% effective concentration (EC50) of 100 to 3000 nM.
